Patent US11365215B2, “Method for preventing, improving, or treating inflammatory bowel disease” (Research & Business Foundation Sungkyunkwan University, priority 2015, dated 2022)
Peptide text beside a SMILES is read from it.

Tests used:
Assay type in all cases: cell-based
[1] = system: MAPK signaling pathway proteins (ERK1/2, JNK, p38); experiment: Western blot of MAPK signaling pathway protein phosphorylation in LPS-treated RAW 246.7 cells; conditions: for phosphorylation of the MAPK signaling pathway proteins (ERK1/2, JNK, p38): 100 nM for 30 minutes, LPS 0, 0.5, 1 and 2 hours
Method: RAW 246.7 macrophage cells were pretreated with compound 1.1 (SEQ ID NO: 2), compound 1.2 and reference compound 1 (SEQ ID NO: 16) at a concentration of 100 nM for 30 minutes and then further treated with LPS for 0 hour, 0.5 hour, 1 hour and 2 hours. […] Changes of the concentration upon phosphorylation of each protein were measured by immunoblotting using anti-phosphorylation antibodies.
Specifically, RAW 246.7 macrophage cells were pretreated with DMSO, compound 1.1 (SEQ ID NO: 2) (100 nM), IRAK1/4 inhibitor (25 μM), and smaducin-6 (100 nM) for 30 minutes, and then further treated with LPS (100 ng/ml) for two hours.

[2] = target: T1, inflammatory signaling pathway complex mediated by MyD88 and RIP1 (Mus musculus, UniProt P22366+Q60855); experiment: Immunoprecipitation/immunoblot of inflammatory signaling pathway complex in LPS-treated BMDM cells; conditions: 100 pM, 1 nM, 100 nM, then 100 ng/mL LPS
T1 construct: endogenous in cells; host or cells: bone-marrow-derived macrophage (BMDM) cells
Method: Bone-marrow-derived macrophage (BMDM) cells were individually pretreated with compound 1.1 (SEQ ID NO: 2), reference compound 1 (SEQ ID NO: 16), and smaducin-6 at various concentrations of 100 pM, 1 nM, and 100 nM, and then further treated with 100 ng/mL of LPS.

[3] = system: NF-κB; experiment: 5×NF-κB-Luc reporter luciferase assay in LPS-treated RAW 264.7 cells
Method: Specifically, 5×NF-κB-Luc reporter plasmid was transfected into RAW 264.7 cells using Effectene (Qiagen, USA). The transfected cells were pretreated with 100 nM of compound 1.1 (SEQ ID NO: 2) for 30 minutes, and further treated with LPS (100 ng/ml) for two hours, and luciferase activity in the cells was measured (FIG. 4 depicts a graph showing relative inhibition activities of compound 1.1 (SEQ ID NO: 2) and compound 1.2 to NF-κB activation). When the cells were treated with compound 1.1 (SEQ ID NO: 2) and compound 1.2 according to the present invention, activation of NF-κB, which was induced by LPS, was inhibited (FIG. 4).
In addition, 5×NF-κB-Luc reporter plasmid was transfected into RAW 264.7 macrophage cells and treated with compounds of the present invention, as described above. After 24 hours of the transfection, the cells were pretreated with DMSO (control), compound 1.1 (SEQ ID NO: 2), reference compound 1 (SEQ ID NO: 16) (compound where palmitic acid is removed from compound 1.1 (SEQ ID NO: 2)), and smaducin-6 were treated at various concentrations of 100 pM, 1 nM, and 100 nM for 30 minutes, and then the cells were treated with 100 ng/ml of LPS for two hours.
Specifically, 5×NF-κB-Luc reporter plasmid, SBE-Luc reporter plasmid, and BRE-Luc reporter plasmid were individually transfected into Raw 264.7 macrophage cells. After 24 hours, the cells transfected with the NF-κB-Luc reporter plasmid were treated with 100 ng/mL of LPS, the cells transfected with the SBE-Luc reporter plasmid were treated with 5 ng/mL of TFG-β1, and the cells transfected with the BRE-Luc reporter plasmid were treated with 100 ng/mL of BMP6 for two hours.
As described in Example 2.3, 5×NF-κB-Luc reporter plasmid was transfected into RAW 246.7 macrophage cells. After 24 hours, the cells transfected with NF-κB-Luc reporter plasmid were pretreated with compound 1.1 (SEQ ID NO: 2) (100 nM), interleukin-1-receptor-associated-kinase-1/4 inhibitor (IRAK1/4) inhibitor (25 μM, CAS 509093-47-4), and smaducin-6 (100 nM) for 30 minutes, and then further treated with LPS (100 ng/ml) for 2 hours. Subsequently, luciferase activities in the cells were measured.

[4] = system: AP-1; experiment: AP-1-Luc reporter luciferase assay in LPS-treated RAW 246.7 cells; conditions: 25 μM for 30 minutes, LPS 100 ng/ml 2 hours
Method: RAW 246.7 macrophage cells were transfected with AP-1-Luc reporter plasmid as described in Example 2.3. After 24 hours, the transfected cells with AP-1-Luc reporter plasmid were pretreated with compound 1.1 (SEQ ID NO: 2) (100 nM), IRAK1/4 inhibitor (25 μM), and smaducin-6 (100 nM) for 30 minutes, and then further treated with LPS (100 ng/ml) for 2 hours.

[5] = system: interleukin-6; experiment: Suppression of LPS-induced IL-6 expression in RAW 264.7 macrophage cells (RT-PCR, Real-Time PCR); conditions: pretreated 100 nM for 30 min, LPS two hours, compared to untreated sample
Method: First, RAW 264.7 macrophage cells were purchased from American Type Culture Collection (ATCC; Manassas, Va.), and were culture at a temperature of 37° C., under 5% CO2 atmosphere, using 10% Fetal Bovine Serum (FBS) and Dulbecco's Modified Eagle's Medium (DMEM) containing 1% penicillin/streptomycin.
The cultured RAW 264.7 macrophage cells were divided into a 6-well cell culture plate. After 24 hours, the cells were pretreated with compound 1.1 (SEQ ID NO: 2), compound 1.2, and smaducin-6, respectively, in a concentration of 100 nM for 30 min, and further treated with lipopolysaccharides (LPS) for two hours. These cells were collected using TRIzol® and the RNA was extracted. From 2 μg of the extracted RNA, cDNAs (complementary deoxyribonucleic acids) were synthesized and reverse transcription polymerase chain reactions (RT-PCR) and real-time polymerase chain reactions (Real-Time PCR) were performed. Samples from the RT-PCR were confirmed by electrophoresis on agarose gels and quantified using densitometer. A glyceraldehyde 3-phosphate dehydrogenase (GAPDH) gene was used as a loading control for the interleukin-6 gene.
RAW 264.7 macrophage cells were treated with varying concentrations of compound 1.1 (SEQ ID NO: 2) from 50 pM to 500 nM for 30 minutes, and treated with 100 ng/mL of LPS for two hours.

[6] = system: inflammatory signaling pathway protein complex mediated by MyD88 or RIP1; experiment: Immunoprecipitation of inflammatory signaling pathway protein complex in LPS-treated RAW264.7 cells; conditions: pretreated, then LPS
From the text: Specifically, using antibodies corresponding to proteins which relate to the formation of Toll-like receptors (TLRs) signaling pathway protein complex (for example, IRAK1, TRAF6, MyD88, RIP1 and Pellino-1), disruption of the formation of inflammatory signaling pathway protein complexes was affirmed by immunoprecipitation. As reference control, a relative amount of expression of β-actin from the total cell lysate was compared and presented using Western blot.
RAW264.7 macrophage cells were individually retreated with compound 1.1 (SEQ ID NO: 2) and compound 1.2, and smaducin-6, and further treated with LPS. These RAW264.7 macrophage cells were collected, lysed in a lysis butter (PBS containing 0.5% Triton X-100, 20 mM HEPES (pH 7.4), 150 mM NaCl, 12.5 mM β-glycerol phosphate, 1.5 mM MgCl2, 10 mM NaF, 2 mM DTT, 1 mM Na3O4V, 2 mM EGTA, and 1 mM Protease Inhibitor (PMSF)), and centrifuged at 13000 rpm for 10 minutes. For immunoprecipitation assays, the supernatant was incubated at 4° C. for 12 hours, with protein-A agarose beads and the antibodies corresponding to the above proteins, and the beads were subsequently washed three times with the lysis buffer. The immunoprecipitated substances were dissociated from the beads with addition of 2× sample buffer, and were boiled. The prepared samples were loaded on SDS-polyacrylamide gel (FIG. 7).

T1 sequence (P22366 whole entry): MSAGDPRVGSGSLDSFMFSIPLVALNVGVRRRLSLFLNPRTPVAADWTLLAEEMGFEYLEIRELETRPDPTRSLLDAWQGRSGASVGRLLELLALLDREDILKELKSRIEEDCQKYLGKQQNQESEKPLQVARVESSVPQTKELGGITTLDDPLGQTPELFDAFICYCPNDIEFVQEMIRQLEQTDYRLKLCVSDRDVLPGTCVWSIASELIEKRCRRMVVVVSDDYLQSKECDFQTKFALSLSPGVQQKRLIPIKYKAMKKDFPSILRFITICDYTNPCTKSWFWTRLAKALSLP
T1 sequence (Q60855 whole entry): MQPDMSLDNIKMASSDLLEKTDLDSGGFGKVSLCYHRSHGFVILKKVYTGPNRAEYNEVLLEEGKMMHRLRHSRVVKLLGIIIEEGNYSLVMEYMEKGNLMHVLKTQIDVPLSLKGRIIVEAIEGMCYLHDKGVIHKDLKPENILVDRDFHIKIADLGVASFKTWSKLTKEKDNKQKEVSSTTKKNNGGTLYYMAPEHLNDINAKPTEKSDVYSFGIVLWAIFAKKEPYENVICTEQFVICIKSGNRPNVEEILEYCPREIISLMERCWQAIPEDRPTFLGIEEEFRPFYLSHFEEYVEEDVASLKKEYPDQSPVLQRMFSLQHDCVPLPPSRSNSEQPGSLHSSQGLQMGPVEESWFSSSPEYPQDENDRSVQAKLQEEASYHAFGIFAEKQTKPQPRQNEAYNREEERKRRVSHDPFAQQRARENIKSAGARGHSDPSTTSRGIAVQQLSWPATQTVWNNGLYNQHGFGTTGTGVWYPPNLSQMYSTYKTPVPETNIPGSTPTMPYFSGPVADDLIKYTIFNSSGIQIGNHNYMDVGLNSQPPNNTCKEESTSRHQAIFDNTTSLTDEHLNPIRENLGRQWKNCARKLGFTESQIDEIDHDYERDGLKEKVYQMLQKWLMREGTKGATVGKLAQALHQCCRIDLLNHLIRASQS

With “reference compound 1: compound where palmitic acid is removed from compound 1.1 (SEQ ID NO: 2) (PPGY) [reference compound]” the “phosphorylation of the MAPK signaling pathway proteins (ERK1/2, JNK, p38)” value [1] was “did not inhibit phosphorylation”, the “formation of inflammatory signaling pathway complex mediated by MyD88 and RIP1” value [2] was “formed the inflammatory signaling pathway complex” and the “inhibition of the activity of NF-κB induced by LPS, dose dependence” value ([3]; 100 pM, 1 nM, 100 nM for 30 minutes, LPS 100 ng/ml two hours) was “not inhibited in dose dependent manner”.

For `O=C(Nc1nc2ccccc2n1CCN1CCOCC1)c1cccc([N+](=O)[O-])c1` [IRAK1/4 inhibitor, reference compound], the “MAPK signaling pathway / phosphorylation of ERK, JNK, p38” value ([1]; 25 μM for 30 minutes, LPS 100 ng/ml two hours) was “suppressed at least one or more of MAPK signaling pathways”, the “AP-1-Luc luciferase activity (MAPK signaling pathway)” value [4] was “inhibited MAPK signaling pathway” and the “NF-κB activation (luciferase activity)” value ([3]; 25 μM for 30 minutes, LPS 100 ng/ml 2 hours) was “inhibited”.

For `CCCCCCCCCCCCCCCC(=O)N1CCC[C@H]1C(=O)NCC(=O)N[C@@H](Cc1ccc(O)cc1)C(=O)O` [compound 1.2, (S)-3-(4-hydroxyphenyl)-2-(2-((S)-1-palmitoylpyrrolidine-2-carboxamido)acetamido)propanoic acid] (HELM PEPTIDE1{[CCCCCCCCCCCCCCCC(=O)[*:2]].P.G.Y}$$$$V2.0), the “phosphorylation of the MAPK signaling pathway proteins (ERK1/2, JNK, p38)” value [1] was “did not inhibit phosphorylation”, the “expression of interleukin-6 induced by LPS treatment” value [5] was “suppressed” and the “activation of NF-κB induced by LPS (luciferase activity)” value ([3]; 100 nM for 30 minutes, LPS 100 ng/ml two hours) was “inhibited”. For the same compound, the “formation of inflammatory signaling pathway protein complex mediated by MyD88 or RIP1” value [6] was “disrupted”.
